# Source: patent US20260274833A1 (NiKang Therapeutics, Inc., priority 2022, published 2026)
# Target: T1, CDK2 (Homo sapiens, UniProt P24941)
# T1 construct: endogenous in cells; host or cells: OVCAR3 cells
# Test: Phospho-RB measurement in OVCAR3 cells (HTRF phospho-RB cellular kit)
# Format: cell-based
# Conditions: inhibition of RB phosphorylation at S807/811 (HTRF, TR-FRET ratio 665/620), 24 h compound treatment, 0.3 to 10,000 nM
# Summary of the method: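 IC50 came from a four-parameter logistic fit of the DMSO-normalized TR-FRET ratio (665/620 nm). That ratio reflects RB phosphorylation at S807/811, read with an HTRF antibody pair 4 h after adding lysate at room temperature.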
row,Compound,IC50
1,"CN1CCN(c2ccc(Nc3nccc(-c4sc(C(C)(C)C)nc4-c4cccc(NS(=O)(=O)N5CCc6ccc(C#N)cc65)c4F)n3)cc2)CC1 [Example 249, N-(3-(2-(tert-butyl)-5-(2-((4-(4-methyl-piperazin-1-yl)phenyl)amino)pyrimidin-4-yl)-thiazol-4-yl)-2-fluoro-phenyl)-6-cyanoindoline-1-sulfonamide]",684 nM
2,"CC(C)(C)c1nc(-c2cccc(NS(=O)(=O)N3CCc4ccc(C#N)cc43)c2F)c(-c2ccnc(Nc3ccc(N4CCN(C5COC5)CC4)cc3)n2)s1 [Example 250, N-(3-(2-(tert-butyl)-5-(2-((4-(4-(oxetan-3-yl)-piperazin-1-yl)phenyl)amino)-pyrimidin-4-yl)thiazol-4-yl)-2-fluoro-phenyl)-6-cyanoindoline-1-sulfonamide]",576 nM
3,Cn1ncc2c1CN(S(=O)(=O)Nc1cccc(-c3nc(C(C)(C)C)sc3-c3ccnc(Nc4ccc(N5CCNCC5)cc4)n3)c1F)C2 [Example 251],1530 nM
4,"Cn1cc2c(n1)CN(S(=O)(=O)Nc1cccc(-c3nc(C(C)(C)C)sc3-c3ccnc(Nc4ccc(N5CCNCC5)cc4)n3)c1F)C2 [Example 252, N-(3-(2-(tert-butyl)-5-(2-((4-(piperazin-1-yl)-phenyl)amino)pyrimidin-4-yl)-thiazol-4-yl)-2-fluorophenyl)-2-methyl-2,6-dihydropyrrolo-[3,4-c]pyrazole-5(4H)-sulfonamide]",3310 nM
5,"CC(C)(C)c1nc(-c2cccc(NS(=O)(=O)N3Cc4ccc(C(F)F)cc4C3)c2F)c(-c2ccnc(NC3CCN(S(C)(=O)=O)CC3)n2)s1 [Example 254, N-(3-(2-(tert-butyl)-5-(2-((1+ (methylsulfonyl)-piperidin-4-yl)amino)-pyrimidin-4-yl)thiazol-4-yl)-2-fluoro-phenyl)-5-(difluoromethyl)-isoindoline-2-sulfonamide]",317 nM
6,"CC(C)(C)c1nc(-c2cccc(NS(=O)(=O)N3Cc4ccc(C(F)F)cc4C3)c2F)c(-c2ccnc(NC3CC4(C3)CS(=O)(=O)C4)n2)s1 [Example 255, N-(3-(2-(tert-butyl)-5-(2-((2,2-dioxido-2-thiaspiro[3.3]heptan-6-yl)amino)-pyrimidin-4-yl)thiazol-4-yl)-2-fluoro-phenyl)-5-(difluoromethyl) isoindoline-2-sulfonamide]",683 nM
7,"CC(C)(C)c1nc(-c2cccc(NS(=O)(=O)N3Cc4ccccc4C34CC4)c2F)c(-c2ccnc(NC3CCN(S(C)(=O)=O)CC3)n2)s1 [Example 256, N-(3-(2-(tert-butyl)-5-(2-((1-(methylsulfonyl)-piperidin-4-yl)amino)-pyrimidin-4-yl)thiazol-4-yl)-2-fluoro-phenyl)spiro [cyclopropane-1,1′-isoindoline]-2′-sulfonamide]",3080 nM
8,"CC(C)(C)c1nc(-c2cccc(NS(=O)(=O)N3CCc4ccc(C(C)(C)O)cc43)c2F)c(-c2ccnc(NC3CC4(C3)CS(=O)(=O)C4)n2)s1 [Example 257, N-(3-(2-(tert-butyl)-5-(2-((2,2-dioxido-2-thiaspiro[3.3]heptan-6-yl)amino)-pyrimidin-4-yl)thiazol-4-yl)-2-fluoro-phenyl)-6-(2-hydroxypropan-2-yl)indoline-1-sulfonamide]",2960 nM

# More lines, now with the values ahead:
row,IC50,Compound
1,435 nM,"CNc1cccc2c1N(S(=O)(=O)Nc1cccc(-c3nc(C(C)(C)C)sc3-c3ccnc(NC4CCN(S(C)(=O)=O)CC4)n3)c1F)CC2 [Example 258, N-(3-(2-(tert-butyl)-5-(2-((1-(methylsulfonyl)-piperidin-4-yl)amino)-pyrimidin-4-yl)thiazol-4-yl)-2-fluoro-phenyl)-7-(methylamino) indoline-1-sulfonamide]"
2,2040 nM,"CN(c1cccc2c1NCC2)S(=O)(=O)Nc1cccc(-c2nc(C(C)(C)C)sc2-c2ccnc(NC3CCN(S(C)(=O)=O)CC3)n2)c1F [Example 259, N-(3-(2-(tert-butyl)-5-(2-((1-(methylsulfonyl)-piperidin-4-yl)amino)-pyrimidin-4-yl)thiazol-4-yl)-2-fluoro-phenyl)-(N-methyl-N-indolin-7-yl)-amine-sulfonamide]"
3,662 nM,"CC(C)(C)c1nc(-c2cccc(NS(=O)(=O)N3CCc4ccc(C(C)(C)C#N)cc43)c2F)c(-c2ccnc(NC3CC4(C3)CS(=O)(=O)C4)n2)s1 [Example 260, N-(3-(2-(tert-butyl)-S-(2-((2,2-dioxido-2-thiaspiro[3.3]heptan-6-yl)amino)-pyrimidin-4-yl)thiazol-4-yl)-2-fluoro-phenyl)-6-(2-cyanopropan-2-yl)indoline-1-sulfonamide]"
4,694 nM,"CC(C)(C)c1nc(-c2cccc(NS(=O)(=O)N3CCc4ccc(S(C)(=O)=O)cc43)c2F)c(-c2ccnc(NC3CC4(C3)CS(=O)(=O)C4)n2)s1 [Example 261, N-(3-(2-(tert-butyl)-5-(2-((2,2-dioxido-2-thiaspiro[3.3]heptan-6-yl)amino)-pyrimidin-4-yl)thiazol-4-yl)-2-fluoro-phenyl)-6-(methylsulfonyl)-indoline-1-sulfonamide]"
5,31.2 nM,"CC(C)(C)c1nc(-c2cccc(NS(=O)(=O)N3Cc4cccc(C(F)F)c4C3)c2F)c(-c2ccnc(NC3CC4(C3)CS(=O)(=O)C4)n2)s1 [Example 262, N~(3-(2-(tert-butyl)-5-(2-((2,2-dioxido-2-thiaspiro[3.3]heptan-6-yl)amino)-pyrimidin-4-yl)thiazol-4-yl)-2-fluoro-phenyl)-4-(difluoromethyl)-isoindoline-2-sulfonamide]"
6,118 nM,"N#Cc1ccc2c(c1)N(S(=O)(=O)Nc1cccc(-c3nc(C45CC(C4)C5)sc3-c3ccnc(NC4CCN(S(=O)(=O)N5CCNCC5)CC4)n3)c1F)CC2 [Example 263, N-(3-(2-(bicyclo [1.1.1]pentan-1-yl)-5-(2-((1-(piperazin-1-ylsulfonyl)piperidin-4-yl)amino)-pyrimidin-4-yl)thiazol-4-yl)-2-fluorophenyl)-6-cyanoindoline-1-sulfonamide]"
7,1830 nM,"O=S1(=O)CC2(CC(Nc3nccc(-c4sc(C56CC(C5)C6)nc4-c4cccc(NS(=O)(=O)N5CCc6ccncc65)c4F)n3)C2)C1 [Example 264, N-(3-(2-(bicyclo [1.1.1]pentan-1-yl)-5-(2-((2,2-dioxido-2-thiaspiro[3.3]heptan-6-yl)amino)-pyrimidin-4-yl)thiazol-4-yl)-2-fluorophenyl)-2,3-dihydro-1H-pyrrolo[2,3-c]pyridine-1-sulfonamide]"
8,5270 nM,"O=S1(=O)CC2(CC(Nc3nccc(-c4sc(C56CC(C5)C6)nc4-c4cccc(NS(=O)(=O)N5C6CCC5CC6)c4F)n3)C2)C1 [Example 265, N-(3-(2-(bicyclo[1.1. 1]pentan-1-yl)-5-(2-((2,2-dioxido-2-thiaspiro[3.3]heptan-6-yl)amino)-pyrimidin-4-yl)thiazol-4-yl)-2-fluorophenyl)-7-azabicyclo[2.2.1]-heptane-7-sulfonamide]"
9,8470 nM,"O=S1(=O)CC2(CC(Nc3nccc(-c4sc(C56CC(C5)C6)nc4-c4cccc(NS(=O)(=O)N5C6CCC5CC(F)(F)C6)c4F)n3)C2)C1 [Example 266, N-(3-(2-(bicyclo [1.1.1]pentan-1-yl)-5-(2-((2,2-dioxido-2-thiaspiro[3.3]heptan-6-yl)amino)-pyrimidin-4-yl)thiazol-4-yl)-2-fluorophenyl)-3,3-difluoro-8-azabicyclo-[3.2.1]octane-8-sulfonamide]"
